The term AC50 denotes the concentration at which the activity in the assay is half-maximal.

This experiment deals with V. cholerae SLS353 luxOD47E qrr4-GFP fluorescence. Description: LuxO quorum inhibitors, qrr4 GFP fluorescence in V. cholerae SLS353 luxOD47E, dose response confirmation (AID 686942).
As to `Cn1nc(NC(=O)c2ccco2)c2cc3ccccc3nc21`, the AC50 is 2000 nM.
For `COc1ccc2cc3c(NC(=O)c4ccco4)nn(C)c3nc2c1` the value was 2000 nM.
Consider `O=C(Nc1nnc(-c2ccc3c(c2)OCCO3)o1)C1CCCCC1`, for which the AC50 was 2000 nM.

The values above are taken from PubChem BioAssay AID686942 (Broad Institute, 2013).
